SMILES strings stand for the structures. Where two headings read alike, the source gives them in different places.

What all share (experiment): biochemical
Common to all, as to design: Eurofins KinaseProfiler full panel at Km ATP, residual kinase activity (%) relative to DMSO

The target in one test is T1, PKG1α(h) (Homo sapiens, UniProt Q13976).
T1 construct: gene PRKG1; isoform 1alpha
T1 sequence (Q13976 1-671): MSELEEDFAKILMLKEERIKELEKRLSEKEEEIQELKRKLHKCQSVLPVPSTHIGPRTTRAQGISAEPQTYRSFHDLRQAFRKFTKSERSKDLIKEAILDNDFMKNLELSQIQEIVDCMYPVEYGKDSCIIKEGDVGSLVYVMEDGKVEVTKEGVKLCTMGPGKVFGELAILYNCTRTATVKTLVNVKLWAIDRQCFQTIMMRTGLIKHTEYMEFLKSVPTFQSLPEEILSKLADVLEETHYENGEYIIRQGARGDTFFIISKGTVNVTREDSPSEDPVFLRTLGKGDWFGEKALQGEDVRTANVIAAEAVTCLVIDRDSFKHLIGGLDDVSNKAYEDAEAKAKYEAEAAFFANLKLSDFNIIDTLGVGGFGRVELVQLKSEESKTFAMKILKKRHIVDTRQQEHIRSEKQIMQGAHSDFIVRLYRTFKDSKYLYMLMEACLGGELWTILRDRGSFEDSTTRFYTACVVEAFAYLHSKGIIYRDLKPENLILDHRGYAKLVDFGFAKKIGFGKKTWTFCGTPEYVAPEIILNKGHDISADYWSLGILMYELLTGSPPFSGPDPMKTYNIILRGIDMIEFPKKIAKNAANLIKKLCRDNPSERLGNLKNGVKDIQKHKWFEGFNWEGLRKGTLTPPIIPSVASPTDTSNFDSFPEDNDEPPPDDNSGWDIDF
Put shortly:
(§1)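 Two 10 µM single-concentration screens were run: a competition-binding screen, in which DNA-tagged kinase bound to immobilized ligands was quantified by qPCR, and a radiometric activity panel at Km ATP. Each is expressed as residual kinase activity (%).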

Another test deals with T2, eEF-2K(h) (Homo sapiens, UniProt O00418).
T2 construct: gene EEF2K
T2 sequence (O00418 1-725): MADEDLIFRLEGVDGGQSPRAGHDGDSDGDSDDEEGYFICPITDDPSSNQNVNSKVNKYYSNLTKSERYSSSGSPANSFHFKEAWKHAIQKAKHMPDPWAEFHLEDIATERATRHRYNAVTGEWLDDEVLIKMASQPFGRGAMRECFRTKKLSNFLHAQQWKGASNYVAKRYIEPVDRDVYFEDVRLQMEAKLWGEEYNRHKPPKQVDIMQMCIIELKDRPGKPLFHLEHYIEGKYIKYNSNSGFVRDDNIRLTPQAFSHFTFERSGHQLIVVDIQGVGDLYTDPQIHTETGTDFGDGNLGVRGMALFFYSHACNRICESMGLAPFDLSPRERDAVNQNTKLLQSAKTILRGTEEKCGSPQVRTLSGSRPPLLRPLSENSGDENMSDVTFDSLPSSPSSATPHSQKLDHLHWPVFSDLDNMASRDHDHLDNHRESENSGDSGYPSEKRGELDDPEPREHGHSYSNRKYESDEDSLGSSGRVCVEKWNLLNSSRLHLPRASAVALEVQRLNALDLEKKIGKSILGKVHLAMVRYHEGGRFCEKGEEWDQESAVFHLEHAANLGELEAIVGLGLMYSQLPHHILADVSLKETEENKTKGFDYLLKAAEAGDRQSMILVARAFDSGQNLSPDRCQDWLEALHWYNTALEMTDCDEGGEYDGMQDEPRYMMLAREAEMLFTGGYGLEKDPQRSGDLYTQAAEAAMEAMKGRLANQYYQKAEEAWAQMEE
The essentials: as §1

In the next test the target is STK33(h) (Homo sapiens, UniProt Q9BYT3). Put shortly: as §1
Chain of STK33(h) (Q9BYT3 whole entry): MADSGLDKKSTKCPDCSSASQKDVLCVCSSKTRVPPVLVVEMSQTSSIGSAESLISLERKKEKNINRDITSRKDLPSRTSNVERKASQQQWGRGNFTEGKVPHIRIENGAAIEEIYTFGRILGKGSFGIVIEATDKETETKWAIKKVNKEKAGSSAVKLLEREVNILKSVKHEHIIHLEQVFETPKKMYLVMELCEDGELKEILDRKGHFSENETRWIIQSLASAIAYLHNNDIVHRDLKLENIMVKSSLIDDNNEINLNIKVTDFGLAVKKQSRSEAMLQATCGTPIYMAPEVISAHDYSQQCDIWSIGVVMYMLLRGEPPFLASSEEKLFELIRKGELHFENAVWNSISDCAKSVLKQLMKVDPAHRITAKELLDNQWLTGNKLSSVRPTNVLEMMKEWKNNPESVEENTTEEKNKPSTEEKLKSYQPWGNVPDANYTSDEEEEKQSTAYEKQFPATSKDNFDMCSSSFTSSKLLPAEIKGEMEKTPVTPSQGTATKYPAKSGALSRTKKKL
A further test addresses T3, SAPK2b(h) (Homo sapiens, UniProt Q15759).
T3 construct: gene MAPK11
The essentials:
as §1

Setting [1] is: read-out: Residual activity (%) 5at.
Setting [2] is: read-out: Residual activity (%) 5ay.
The mark [3] stands for this setting: read-out: Residual activity (%) 5as.
Setting [4] is: read-out: Residual activity (%) Spautin-1 5aa.

T3 sequence (Q15759 whole entry): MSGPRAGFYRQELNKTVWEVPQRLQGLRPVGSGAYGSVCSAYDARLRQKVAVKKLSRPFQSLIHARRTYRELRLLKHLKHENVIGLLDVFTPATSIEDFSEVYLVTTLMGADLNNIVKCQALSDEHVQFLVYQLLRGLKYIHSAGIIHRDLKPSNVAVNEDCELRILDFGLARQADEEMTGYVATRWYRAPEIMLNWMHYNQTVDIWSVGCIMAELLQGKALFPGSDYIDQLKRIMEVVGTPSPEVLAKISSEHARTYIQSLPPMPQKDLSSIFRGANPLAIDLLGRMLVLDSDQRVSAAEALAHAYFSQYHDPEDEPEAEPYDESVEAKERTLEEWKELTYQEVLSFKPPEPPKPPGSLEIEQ

With `Fc1ccc2ncnc(NCCc3ccc(Cl)cc3)c2c1` [5at, N-[2-(4-Chlorophenyl)Ethyl]-6-Fluoro-4-Quinazolinamine], the remaining activity at 10 µM turned out to be 93% on PKG1α(h) (setting [1]), 85% at eEF-2K(h) (setting [1]), 100% on STK33(h) (setting [1]) and 84% on SAPK2b(h) (setting [1]).
Turning to `COc1ccc2ncnc(Nc3cccc(F)c3)c2c1` [5ay, N-(3-Fluorophenyl)-6-Methoxy-4-Quinazolinamine], the remaining activity at 10 µM on PKG1α(h) (setting [2]) was determined as 95%; on eEF-2K(h) (setting [2]) it was 79%; at STK33(h) (setting [2]), 77%; at SAPK2b(h) (setting [2]), 83%.
`Fc1ccc(CCNc2ncnc3ccc(F)cc23)cc1` [5as, 6-Fluoro-N-[2-(4-Fluorophenyl)Ethyl]-4-Quinazolinamine]: the remaining activity at 10 µM at PKG1α(h) (setting [3]) came out at 96%; on eEF-2K(h) (setting [3]) it was 85%; on STK33(h) (setting [3]), 90%; at SAPK2b(h) (setting [3]), 95%.
On to `Fc1ccc(CNc2ncnc3ccc(F)cc23)cc1` [5aa, 6-Fluoro-N-(4-fluorobenzyl)-4-Quinazolinamine], for which the remaining activity at 10 µM amounted to 91% at PKG1α(h) (setting [4]), 87% at eEF-2K(h) (setting [4]) and 79% on SAPK2b(h) (setting [4]).

The values are drawn from PMC7827406, “Structure–Activity Relationship (SAR) Study of Spautin-1 to Entail the Discovery of Novel NEK4 Inhibitors” (International Journal of Molecular Sciences, 2021).
